ChEMBL document CHEMBL1201862, “PubChem BioAssay data set” (2004)
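Exposure lasted 48 hours, with cells grown in 96-well plates and compounds tested at five concentrations. The concentration for 50% growth inhibition is given as GI50.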 Calls of active or inactive are those of the source. No stated cut-off is given here; in the data, active = GI50 up to about 1.1 µM and inactive = higher.

Key:
Assay in all cases: inhibition of tumour cell growth, NCI panel, 48 h
[1] = test system: 786-0
[2] = test system: A498
[3] = test system: A549
[4] = test system: ACHN
[5] = test system: BT-549
[6] = test system: CAKI-1
[7] = test system: CCRF-CEM
[8] = test system: COLO 205
[9] = test system: DU-145
[10] = test system: EKVX
[11] = test system: HCC 2998
[12] = test system: HCT-116
[13] = test system: HCT-15
[14] = test system: HL-60
[15] = test system: HOP-62
[16] = test system: HOP-92
[17] = test system: HT-29
[18] = test system: Hs-578T
[19] = test system: IGROV-1
[20] = test system: K562
[21] = test system: KM12
[22] = test system: LOX IMVI
[23] = test system: M14
[24] = test system: MCF7
[25] = test system: MDA-MB-231
[26] = test system: MDA-MB-435
[27] = test system: MDA-N
[28] = test system: MOLT-4
[29] = test system: Malme-3M
[30] = test system: NCI-H226
[31] = test system: NCI-H23
[32] = test system: NCI-H460
[33] = test system: NCI-H522
[34] = test system: NCI/ADR-RES
[35] = test system: OVCAR-3
[36] = test system: OVCAR-4
[37] = test system: OVCAR-5
[38] = test system: OVCAR-8
[39] = test system: PC-3
[40] = test system: RPMI-8226
[41] = test system: RXF 393
[42] = test system: SF-268
[43] = test system: SF-295
[44] = test system: SF-539
[45] = test system: SK-MEL-28
[46] = test system: SK-MEL-2
[47] = test system: SK-MEL-5
[48] = test system: SK-OV-3
[49] = test system: SN12C
[50] = test system: SNB-19
[51] = test system: SNB-75
[52] = test system: SR
[53] = test system: SW-620
[54] = test system: T47D
[55] = test system: TK-10
[56] = test system: U-251
[57] = test system: UACC-257
[58] = test system: UACC-62
[59] = test system: UO-31

N#Cc1nc(Sc2cnsn2)c(Sc2cnsn2)nc1C#N
GI50 [1]: 6.78 µM (inactive)
GI50 [2]: 21.8 µM (inactive)
GI50 [3]: 28.6 µM (inactive)
GI50 [4]: 7.1 µM (inactive)
GI50 [5]: 21.4 µM (inactive)
GI50 [6]: 6.47 µM (inactive)
GI50 [7]: 0.426 µM (active)
GI50 [8]: 3.85 µM (inactive)
GI50 [9]: 17.1 µM (inactive)
GI50 [10]: 10.4 µM (inactive)
GI50 [11]: 18.7 µM (inactive)
GI50 [12]: 6.65 µM (inactive)
GI50 [13]: 6.68 µM
GI50 [14]: 1.95 µM (inactive)
GI50 [15]: 18.7 µM (inactive)
GI50 [16]: 20 µM (inactive)
GI50 [17]: 20.6 µM (inactive)
GI50 [18]: 19.1 µM (inactive)
GI50 [19]: 18.5 µM (inactive)
GI50 [20]: 2.9 µM (inactive)
GI50 [21]: 20.7 µM (inactive)
GI50 [22]: 17.9 µM (inactive)
GI50 [23]: 20.4 µM (inactive)
GI50 [24]: 21.9 µM (inactive)
GI50 [25]: 23.9 µM (inactive)
GI50 [26]: 11.5 µM (inactive)
GI50 [27]: 20.4 µM (inactive)
GI50 [28]: 2.65 µM (inactive)
GI50 [29]: 4.81 µM (inactive)
GI50 [30]: 19.9 µM (inactive)
GI50 [31]: 21.6 µM (inactive)
GI50 [32]: 24.6 µM (inactive)
GI50 [33]: 3.93 µM (inactive)
GI50 [34]: 22.8 µM (inactive)
GI50 [35]: 6.79 µM (inactive)
GI50 [36]: 21.7 µM (inactive)
GI50 [37]: 18.9 µM (inactive)
GI50 [38]: 24.5 µM (inactive)
GI50 [39]: 21.6 µM (inactive)
GI50 [40]: 3.5 µM (inactive)
GI50 [41]: 5.94 µM (inactive)
GI50 [42]: 19.4 µM (inactive)
GI50 [43]: 16.6 µM (inactive)
GI50 [44]: 19.4 µM (inactive)
GI50 [45]: 22.6 µM (inactive)
GI50 [46]: 21.2 µM (inactive)
GI50 [47]: 14.9 µM (inactive)
GI50 [48]: 17.9 µM (inactive)
GI50 [49]: 21.4 µM (inactive)
GI50 [50]: 30 µM (inactive)
GI50 [51]: 22.9 µM (inactive)
GI50 [52]: 8.91 µM (inactive)
GI50 [53]: 2.25 µM (inactive)
GI50 [54]: 6.25 µM (inactive)
GI50 [55]: 5.12 µM (inactive)
GI50 [56]: 29.4 µM (inactive)
GI50 [57]: 13.6 µM (inactive)
GI50 [58]: 17.6 µM (inactive)
GI50 [59]: 9.44 µM (inactive)

Cc1ccc(S(=O)(=O)C2=Cc3ccc(C(F)(F)F)cc3C2(O)c2cccc(C(F)(F)F)c2)cc1 (stereo not drawn)
GI50 [1]: 1.93 µM (inactive)
GI50 [2]: 2 µM (inactive)
GI50 [3]: 2.99 µM (inactive)
GI50 [4]: 2.46 µM (inactive)
GI50 [5]: 2.06 µM (inactive)
GI50 [6]: 4.05 µM (inactive)
GI50 [7]: 2.56 µM (inactive)
GI50 [8]: 1.79 µM (inactive)
GI50 [9]: 3.25 µM (inactive)
GI50 [10]: 2.87 µM (inactive)
GI50 [11]: 2.43 µM (inactive)
GI50 [12]: 1.58 µM (inactive)
GI50 [13]: 1.95 µM
GI50 [14]: 1.65 µM (inactive)
GI50 [15]: 7.35 µM (inactive)
GI50 [16]: 1.88 µM (inactive)
GI50 [17]: 2.19 µM (inactive)
GI50 [18]: 3.13 µM (inactive)
GI50 [19]: 2.64 µM (inactive)
GI50 [20]: 1.99 µM (inactive)
GI50 [21]: 1.88 µM (inactive)
GI50 [22]: 1.91 µM (inactive)
GI50 [23]: 2.4 µM (inactive)
GI50 [24]: 2.3 µM (inactive)
GI50 [25]: 2.08 µM (inactive)
GI50 [26]: 2.05 µM (inactive)
GI50 [27]: 2.38 µM (inactive)
GI50 [28]: 2.5 µM (inactive)
GI50 [29]: 2.02 µM (inactive)
GI50 [30]: 2.15 µM (inactive)
GI50 [31]: 2.01 µM (inactive)
GI50 [32]: 2.33 µM (inactive)
GI50 [33]: 1.66 µM (inactive)
GI50 [34]: 2.71 µM (inactive)
GI50 [35]: 1.64 µM (inactive)
GI50 [36]: 1.85 µM (inactive)
GI50 [37]: 2.08 µM (inactive)
GI50 [38]: 1.41 µM (inactive)
GI50 [39]: 2.79 µM (inactive)
GI50 [40]: 2.65 µM (inactive)
GI50 [41]: 2.23 µM (inactive)
GI50 [42]: 2.39 µM (inactive)
GI50 [43]: 2.45 µM (inactive)
GI50 [44]: 1.95 µM (inactive)
GI50 [45]: 1.9 µM (inactive)
GI50 [46]: 1.82 µM (inactive)
GI50 [47]: 1.88 µM (inactive)
GI50 [48]: 10.2 µM (inactive)
GI50 [49]: 1.88 µM (inactive)
GI50 [50]: 5.83 µM (inactive)
GI50 [51]: 2.93 µM (inactive)
GI50 [52]: 2.43 µM (inactive)
GI50 [53]: 1.85 µM (inactive)
GI50 [54]: 3.1 µM (inactive)
GI50 [55]: 2.47 µM (inactive)
GI50 [56]: 1.87 µM (inactive)
GI50 [57]: 1.85 µM (inactive)
GI50 [58]: 2.39 µM (inactive)
GI50 [59]: 2.25 µM (inactive)
